Source: the CheMixHub viscosity set

Assay: xn = mol fraction of the nth substance listed

COCCOCCOCCO + ClC=C(Cl)Cl
298.15 K, 101.33 kPa
Settings | viscosity [mPa·s]
x1 = 0.0056 | 0.538
x1 = 0.0133 | 0.554
x1 = 0.0235 | 0.574
x1 = 0.0377 | 0.603
x1 = 0.0554 | 0.645
x1 = 0.0751 | 0.694
x1 = 0.0865 | 0.725
x1 = 0.1057 | 0.778
x1 = 0.1359 | 0.869
x1 = 0.171 | 0.983
x1 = 0.2125 | 1.134
x1 = 0.2627 | 1.342
x1 = 0.286 | 1.451
x1 = 0.3201 | 1.615
x1 = 0.3511 | 1.784
x1 = 0.3864 | 1.974
x1 = 0.4202 | 2.172
x1 = 0.4548 | 2.382
x1 = 0.4947 | 2.633
x1 = 0.5322 | 2.875
x1 = 0.5817 | 3.21
x1 = 0.6349 | 3.596
x1 = 0.6824 | 3.953
x1 = 0.7308 | 4.32
x1 = 0.7791 | 4.716
x1 = 0.8178 | 5.027
x1 = 0.8689 | 5.459
x1 = 0.9106 | 5.813
x1 = 0.9455 | 6.128
x1 = 0.9667 | 6.324
x2 = 0.0177 | 6.438

Nc1ccccc1 + c1ccccc1
Settings | viscosity [mPa·s]
298.15 K, 101 kPa, x1 = 0.1039 | 0.71
298.15 K, 101 kPa, x1 = 0.2282 | 0.83
298.15 K, 101 kPa, x1 = 0.3729 | 1.1
298.15 K, 101 kPa, x1 = 0.4341 | 1.211
298.15 K, 101 kPa, x1 = 0.5562 | 1.483
298.15 K, 101 kPa, x1 = 0.6562 | 1.803
298.15 K, 101 kPa, x1 = 0.7656 | 2.217
298.15 K, 101 kPa, x1 = 0.8661 | 2.767
298.15 K, 101 kPa, x1 = 0.9088 | 3.029
298.15 K, 101 kPa, x2 = 0.01 | 3.64
298.15 K, 101 kPa, x2 = 0.026 | 3.555
298.15 K, 101 kPa, x2 = 0.12 | 2.895
298.15 K, 101 kPa, x2 = 0.205 | 2.461
298.15 K, 101 kPa, x2 = 0.304 | 2.022
298.15 K, 101 kPa, x2 = 0.39 | 1.67
298.15 K, 101 kPa, x2 = 0.468 | 1.448
298.15 K, 101 kPa, x2 = 0.52 | 1.307
298.15 K, 101 kPa, x2 = 0.626 | 1.1
298.15 K, 101 kPa, x2 = 0.662 | 1.056
298.15 K, 101 kPa, x2 = 0.794 | 0.861
298.15 K, 101 kPa, x2 = 0.896 | 0.714
298.15 K, 101.33 kPa, x1 = 0.2 | 0.78
298.15 K, 101.33 kPa, x1 = 0.5 | 1.277
298.15 K, 101.33 kPa, x2 = 0.25 | 2.458
298.15 K, 101.33 kPa, x2 = 0.4 | 1.764
298.15 K, 101.33 kPa, x2 = 0.5 | 1.427
303.15 K, 101 kPa, x1 = 0.1039 | 0.657
303.15 K, 101 kPa, x1 = 0.2282 | 0.781
303.15 K, 101 kPa, x1 = 0.3729 | 0.965
303.15 K, 101 kPa, x1 = 0.4341 | 1.093
303.15 K, 101 kPa, x1 = 0.5562 | 1.371
303.15 K, 101 kPa, x1 = 0.6562 | 1.648
303.15 K, 101 kPa, x1 = 0.7656 | 1.991
303.15 K, 101 kPa, x1 = 0.8661 | 2.495
303.15 K, 101 kPa, x1 = 0.9088 | 2.745
308.15 K, 101 kPa, x1 = 0.1019 | 0.5981
308.15 K, 101 kPa, x1 = 0.1039 | 0.589
308.15 K, 101 kPa, x1 = 0.1492 | 0.6532
308.15 K, 101 kPa, x1 = 0.2282 | 0.736
308.15 K, 101 kPa, x1 = 0.2326 | 0.728
308.15 K, 101 kPa, x1 = 0.267 | 0.7545
308.15 K, 101 kPa, x1 = 0.3462 | 0.8563
308.15 K, 101 kPa, x1 = 0.3729 | 0.91
308.15 K, 101 kPa, x1 = 0.4341 | 1.012
308.15 K, 101 kPa, x1 = 0.4911 | 1.115
308.15 K, 101 kPa, x1 = 0.5562 | 1.224
308.15 K, 101 kPa, x1 = 0.6312 | 1.492
308.15 K, 101 kPa, x1 = 0.6562 | 1.476
308.15 K, 101 kPa, x1 = 0.68 | 1.59
308.15 K, 101 kPa, x1 = 0.7615 | 1.835
308.15 K, 101 kPa, x1 = 0.7656 | 1.79
308.15 K, 101 kPa, x1 = 0.8499 | 2.128
308.15 K, 101 kPa, x1 = 0.8661 | 2.179
308.15 K, 101 kPa, x1 = 0.9088 | 2.443
313.15 K, 101 kPa, x1 = 0.1039 | 0.562
313.15 K, 101 kPa, x1 = 0.2282 | 0.689
313.15 K, 101 kPa, x1 = 0.3729 | 0.842
313.15 K, 101 kPa, x1 = 0.4341 | 0.928
313.15 K, 101 kPa, x1 = 0.5562 | 1.124
313.15 K, 101 kPa, x1 = 0.6562 | 1.337
313.15 K, 101 kPa, x1 = 0.7656 | 1.587
313.15 K, 101 kPa, x1 = 0.8661 | 1.93
313.15 K, 101 kPa, x1 = 0.9088 | 2.103
323.15 K, 101.33 kPa, x1 = 0.2 | 0.541
323.15 K, 101.33 kPa, x1 = 0.5 | 0.792

CC(C)(C)O + CC(C)O
303.2 K, 101.33 kPa
Settings | viscosity [mPa·s]
x2 = 0.05 | 3.297
x2 = 0.1 | 3.237
x2 = 0.15 | 3.172
x2 = 0.2 | 3.101
x2 = 0.3 | 2.931
x2 = 0.4 | 2.75
x2 = 0.5 | 2.572
x2 = 0.6 | 2.396
x2 = 0.7 | 2.224
x2 = 0.8 | 2.059
x2 = 0.85 | 1.979
x2 = 0.9 | 1.9
x2 = 0.95 | 1.831

Oc1ccc2ccccc2c1 + CCCCCOC(C)=O
Settings | viscosity [mPa·s]
298.15 K, 101 kPa, x2 = 0.5 | 1.598

Nc1ccccc1 + CO
298.15 K, 101 kPa
Settings | viscosity [mPa·s]
x1 = 0.0473 | 0.5608
x1 = 0.1001 | 0.5768
x1 = 0.1604 | 0.6103
x1 = 0.2292 | 0.6583
x1 = 0.3082 | 0.7229
x1 = 0.4007 | 0.8404
x1 = 0.5096 | 1.023
x1 = 0.6406 | 1.322
x1 = 0.8005 | 1.867
